This note sets out measurements from patent US12398120B2, “Substituted hydantoinamides as ADAMTS7 antagonists” (BAYER AKTIENGESELLSCHAFT, priority 2019, dated 2025).

The target of this experiment is ADAMTS4 (Homo sapiens (Human), UniProt O75173). Description: Selectivity assay for ADAMTS-7 modulators: ADAMTS4 (FRET substrate). The note with it: ADAMTS4 (R&D 4307-AD) 50 nM, substrate Dabcyl-EEVKAKVQPY-Glu(Edans)-NH2 1 μM, 120 min, 32° C. In kind it is biochemical. Put shortly: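 Human ADAMTS4 with compound in DMSO, or DMSO control; reaction started by adding FRET substrate in reaction buffer. Fluorescence increase measured at substrate-specific wavelengths. IC50 derived from % inhibition of enzyme activity versus compound concentration.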
Sequence of ADAMTS4 (O75173 213-685): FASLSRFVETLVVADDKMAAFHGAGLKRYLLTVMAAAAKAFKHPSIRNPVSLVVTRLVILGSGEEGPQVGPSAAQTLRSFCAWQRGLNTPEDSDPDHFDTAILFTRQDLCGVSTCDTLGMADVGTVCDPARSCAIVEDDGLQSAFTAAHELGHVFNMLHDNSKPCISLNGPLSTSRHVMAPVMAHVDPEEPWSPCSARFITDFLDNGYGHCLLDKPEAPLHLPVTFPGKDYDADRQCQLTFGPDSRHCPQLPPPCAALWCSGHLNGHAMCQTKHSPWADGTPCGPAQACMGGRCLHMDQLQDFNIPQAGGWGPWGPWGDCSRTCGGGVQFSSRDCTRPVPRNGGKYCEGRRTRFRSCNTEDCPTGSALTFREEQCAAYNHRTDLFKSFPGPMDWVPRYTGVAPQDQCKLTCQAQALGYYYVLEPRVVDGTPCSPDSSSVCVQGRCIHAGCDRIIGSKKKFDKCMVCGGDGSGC

`Cn1nccc1C1(CNC(=O)c2cccc(Cl)c2-c2ccc(C(F)(F)F)cc2)NC(=O)NC1=O` (single isomer, unassigned; ent-6) [Example 310, Ent-6-Chloro-N-{[4-(1-Methyl-1H-Pyrazol-5-Yl)-2,5-Dioxoimidazolidin-4-Yl]Methyl}-4′-(Trifluoromethyl)[Biphenyl]-2-Carboxamide]: the IC50 was found to be 1.9 µM.

In turn, `COc1ccc(C(=O)NC[C@@]2(C3CC3)NC(=O)NC2=O)c(-c2ccc(C3CC3)cc2)c1` [Example 103, 4′-Cyclopropyl-N-{[(4R)-4-Cyclopropyl-2,5-Dioxoimidazolidin-4-Yl]Methyl}-5-Methoxy[Biphenyl]-2-Carboxamide] returned a concentration for half-maximal inhibition (IC50) of 7.1 µM.

Molecule `Cn1nccc1C1(CNC(=O)c2ccc(C(F)F)cc2-c2ccc(C(F)(F)F)cc2)NC(=O)NC1=O` (single isomer, unassigned; ent-5) [Example 309, Ent-5-(Difluoromethyl)-N-{[4-(1-Methyl-1H-Pyrazol-5-Yl)-2,5-Dioxoimidazolidin-4-Yl]Methyl}-4′-(Trifluoromethyl)[Biphenyl]-2-Carboxamide] registered an IC50 of 2.7 µM. To `Cc1nocc1C1(CNC(=O)c2ccccc2-c2ccc(C(F)(F)F)cc2)NC(=O)NC1=O` (stereo not drawn) [Example 68, Ent-N-{[4-(3-Methyl-1,2-Oxazol-4-Yl)-2,5-Dioxoimidazolidin-4-Yl]Methyl}-4′-(Trifluoromethyl)[Biphenyl]-2-Carboxamide] belongs 11 µM; to `Cn1nccc1C1(CNC(=O)c2ccccc2-c2ccc(C(F)(F)F)cc2)NC(=O)NC1=O` (stereo not drawn) [Example 185, Ent-N-{[4-(1-Methyl-1H-Pyrazol-5-Yl)-2,5-Dioxoimidazolidin-4-Yl]Methyl}-4′-(Trifluoromethyl)[Biphenyl]-2-Carboxamide], 16.5 µM. `Cc1scnc1C1(CNC(=O)c2ccc(Cl)cc2-c2ccc(C(F)(F)F)cc2)NC(=O)NC1=O` (single isomer, unassigned; ent-5) [Example 16, Ent-5-Chloro-N-{[4-(5-Methyl-1,3-Thiazol-4-Yl)-2,5-Dioxoimidazolidin-4-Yl]Methyl}-4′-(Trifluoromethyl)[Biphenyl]-2-Carboxamide] returned an IC50 of 3.5 µM. Turning to `Cc1nscc1C1(CNC(=O)c2ccc(F)c(F)c2-c2ccc(C(F)(F)F)cc2)NC(=O)NC1=O` (racemic) [Example 306, Rac-5,6-Difluoro-N-{[4-(3-Methyl-1,2-Thiazol-4-Yl)-2,5-Dioxoimidazolidin-4-Yl]Methyl}-4′-(Trifluoromethyl)[Biphenyl]-2-Carboxamide], half-maximal inhibition (IC50) required 16 µM.

For the molecule `Cc1nc(C)c(C2(CNC(=O)c3ccccc3-c3ccc(C(F)(F)F)nc3)NC(=O)NC2=O)s1` (stereo not drawn) [Example 74, Ent-N-{[4-(2,4-Dimethyl-1,3-Thiazol-5-Yl)-2,5-Dioxoimidazolidin-4-Yl]Methyl}-2-[6-(Trifluoromethyl)Pyridin-3-Yl]Benzamide], the IC50 is 5.2 µM. To `Cc1scnc1C1(CNC(=O)c2ccccc2-c2ccc(C(F)(F)F)cc2)NC(=O)NC1=O` (racemic) [Example 1, Rac-N-{[4-(5-Methyl-1,3-Thiazol-4-Yl)-2,5-Dioxoimidazolidin-4-Yl]Methyl}-4′-(Trifluoromethyl)[Biphenyl]-2-Carboxamide] belongs 6.5 µM. To `O=C1NC(=O)C(CNC(=O)c2ccccc2-c2ccc(Cl)cc2)(C2(F)CC2)N1` (racemic) [Example 250, Rac-4′-Chloro-N-{[4-(1-Fluorocyclopropyl)-2,5-Dioxoimidazolidin-4-Yl]Methyl}[Biphenyl]-2-Carboxamide] belongs 31 µM; to `O=C1NC(=O)C(CNC(=O)c2ccccc2-c2ccc(C(F)(F)F)cc2)(c2cncn2CC(F)(F)F)N1` (racemic) [Example 94, Rac-N-({2,5-Dioxo-4-[1-(2,2,2-Trifluoroethyl)-1H-Imidazol-5-Yl]Imidazolidin-4-Yl}Methyl)-4′-(Trifluoromethyl)[Biphenyl]-2-Carboxamide], 5.4 µM; to `Cn1nc2ccccc2c1C1(CNC(=O)c2ccc(F)cc2-c2ccc(C(F)(F)F)cc2)NC(=O)NC1=O` (racemic) [Example 288, Rac-5-Fluoro-N-{[4-(2-Methyl-2H-Indazol-3-Yl)-2,5-Dioxoimidazolidin-4-Yl]Methyl}-4′-(Trifluoromethyl)[Biphenyl]-2-Carboxamide], 21 µM. In the case of `Cn1ccc(C2(CNC(=O)c3ccc(F)c(F)c3-c3ccc(C(F)(F)F)cc3)NC(=O)NC2=O)n1` (racemic) [Example 307, Rac-5,6-Difluoro-N-{[4-(1-Methyl-1H-Pyrazol-3-Yl)-2,5-Dioxoimidazolidin-4-Yl]Methyl}-4′-(Trifluoromethyl)[Biphenyl]-2-Carboxamide], the IC50 stood at 23 µM.

Take `Cc1cc(C2(CNC(=O)c3ccccc3-c3ccc(C(F)(F)F)cc3)NC(=O)NC2=O)n(C)n1` (stereo not drawn) [Example 302, Ent-N-{[4-(1,3-Dimethyl-1H-Pyrazol-5-Yl)-2,5-Dioxoimidazolidin-4-Yl]Methyl}-4′-(Trifluoromethyl)[Biphenyl]-2-Carboxamide]: the IC50 turned out to be 7.6 µM. As for `CCCC1(CNC(=O)c2ccccc2-c2ccc(C(F)(F)F)cc2)NC(=O)NC1=O` (racemic) [Example 24, Rac-N-[(2,5-Dioxo-4-Propylimidazolidin-4-Yl)Methyl]-4′-(Trifluoromethyl)[Biphenyl]-2-Carboxamide], the IC50 was above 50 µM. For the molecule `Cc1ccc(-c2c(C)cccc2C(=O)NCC2(c3nccn3C)NC(=O)NC2=O)cc1` (single isomer, unassigned; ent-4) [Example 134, Ent-4′,6-Dimethyl-N-{[4-(1-Methyl-1H-Imidazol-2-Yl)-2,5-Dioxoimidazoidin-4-Yl]Methyl}[1,1′-Biphenyl]-2-Carboxamide], half-maximal inhibition (IC50) was put at 1.4 µM. Take `Cn1cncc1C1(CNC(=O)c2ccc(F)cc2-c2ccc(C(F)(F)F)cc2)NC(=O)NC1=O` (racemic) [Example 284, Rac-5-Fluoro-N-{[4-(1-Methyl-1H-Imidazol-5-Yl)-2,5-Dioxoimidazolidin-4-Yl]Methyl}-4′-(Trifluoromethyl)[Biphenyl]-2-Carboxamide]: the IC50 was found to be 8.5 µM.

Molecule `CC(C)(C#N)c1ccc(-c2ccccc2C(=O)NC[C@@]2(C3CC3)NC(=O)NC2=O)cc1` [Example 123, 4′-(2-Cyanopropan-2-Yl)-N-{[(4R)-4-Cyclopropyl-2,5-Dioxoimidazolidin-4-Yl]Methyl}[Biphenyl]-2-Carboxamide] yielded an IC50 of 19 µM. As for `Cc1ccc(C(=O)NC[C@@]2(C3CC3)NC(=O)NC2=O)c(-c2ccc(C3CC3(F)F)cc2)c1` (single isomer, unassigned) [Example 138], the figure is 4.9 µM. To `CC(C)C1(CNC(=O)c2ccccc2-c2ccc(C(F)(F)F)nc2)NC(=O)NC1=O` (stereo not drawn) [Example 211, Ent-N-[(4-Isopropyl-2,5-Dioxoimidazolidin-4-Yl)Methyl]-2-[6-(Trifluoromethyl)Pyridin-3-Yl]Benzamide] belongs 28 µM. `Cn1nccc1C1(CNC(=O)c2ccc(F)cc2-c2ccc(C(F)(F)F)cc2)NC(=O)NC1=O` (single isomer, unassigned; ent-5) [Example 184, Ent-5-Fluoro-N-{[4-(1-Methyl-1H-Pyrazol-5-Yl)-2,5-Dioxoimidazolidin-4-Yl]Methyl}-4′-(Trifluoromethyl)[Biphenyl]-2-Carboxamide] gave an IC50 of 9.37 µM.
